One test has as its system Myzus persicae. The experiment in a line: EPG monitoring of aphid probing and feeding (no-choice test). The class given is in vivo. The note with it: 8-h EPG; for Mean duration of probing (C + G + E) / Number of probes / Total duration of pathway (C) / Total duration of phloem phase (E) / Total duration of probing (C + G + E): 0.1% solution, n = 12; for Mean duration of probing (C + G + E) / Number of probes / Total duration of pathway (C) / Total duration of phloem phase (E) / Total duration of probing (C + G + E) / Number of probes before first phloem phase / Time from first probe to first phloem phase / Duration of first phloem phase / Total duration of phloem salivation E1 / Total duration of phloem sap ingestion E2 / Number of probes < 3 min: mean ± SE; for Number of probes before first phloem phase / Time from first probe to first phloem phase: activities in non-phloem tissues; for Number of probes before first phloem phase / Time from first probe to first phloem phase / Duration of first phloem phase / Total duration of phloem salivation E1 / Total duration of phloem sap ingestion E2 / Number of probes < 3 min: n = 10-12; for Duration of first phloem phase / Total duration of phloem salivation E1 / Total duration of phloem sap ingestion E2: activities in sieve elements; for Number of probes < 3 min: before first phloem phase; for Proportion of salivation in phloem phase: (duration of E1 / duration of E1 + E2)*100; for Proportion of phloem phase in total probing: index = duration of phloem phase E / duration of probing C + G + E. The procedure:
The peach potato aphids Myzus persicae (Sulzer) and the Chinese cabbage Brassica rapa subsp. pekinensis (Lour.) Hanelt were reared in laboratory at 20 °C, 65% r.h., and L16:8D photoperiod. One to seven days old apterous females of M. persicae and 3-week old plants with 4–5 fully developed leaves were used for experiments. M. persicae were obtained from the laboratory culture maintained at the Department of Botany and Ecology for many generations since 2000. All experiments were carried out under the same conditions of temperature, relative humidity, and photoperiod. The bioassays were started at 10–11.a.m. Each compound was dissolved in 70% ethanol to obtain the recommended 0.1% solution[40]. All compounds were applied on the adaxial and abaxial leaf surfaces by immersing a leaf in the ethanolic solution of a given compound for 30 s.[20]. Control leaves of similar size were immersed in 70% ethanol that was used as a solvent for the studied compounds. Experiments were performed 1 h after the compounds application to allow the evaporation of the solvent. Every plant and aphid were used only once.
Aphid probing and the phloem sap uptake by M. persicae was monitored using the technique of electronic registration of aphid probing in plant tissues, known as EPG (= Electrical Penetration Graph), that is frequently employed in insect–plant relationship studies considering insects with sucking-piercing mouthparts[42]–[44]. In this experimental set-up, aphid and plant are connected to electrodes and thus made parts of an electric circuit, which is completed when the aphid inserts its stylets into the plant. Weak voltage is supplied in the circuit, and all changing electric properties are recorded as EPG waveforms that can be correlated with aphid activities and stylet position in plant tissues[45],[46]. The parameters describing aphid behaviour during probing and feeding, such as total time of probing, proportion of phloem patterns E1 and E2, number of probes, etc., are good indicators of plant suitability or interference of probing by chemical or physical factors in individual plant tissues[44]–[46]. In the present study, aphids were attached to a golden wire electrode with conductive silver paint (epgsystems. eu) and starved for 1 h prior to the experiment. Probing behaviour of 12 apterous females/studied compound and control was monitored for 8 h continuously with Giga-4 and Giga-8 DC EPG with 1 GΩ of input resistance recording equipment (EPG Systems, Wageningen, The Netherlands). Each aphid was given access to a freshly prepared plant and each aphid/plant combination was used only once. Various behavioural phases were labelled manually using the Stylet + software (www.epgsystems.eu). The following aphid behaviours were distinguished: no penetration (waveform 'np' – aphid stylets outside the plant), pathway phase—penetration of non-phloem tissues (waveforms 'ABC'), phloem phase (salivation into sieve elements, waveform ‘E1’ and ingestion of phloem sap, waveform ‘E2’), and xylem phase (ingestion of xylem sap, waveform 'G'). Waveform ‘G’ occurred rarely irrespective of the treatment. Therefore, in all calculations the xylem phase was added to the pathway phase and termed as probing in non-phloem tissues. The E1/E2 transition patterns were included in E2. Waveform patterns that were not terminated before the end of the experimental period (8 h) were not excluded from the calculations. The parameters derived from EPG recordings were analyzed according to their frequency and duration in configuration related to activities in peripheral and vascular tissues.
All statistical calculations related to data of the no-choice test were performed using StatSoft, Inc. (2014) STATISTICA (data analysis software system), version 12, www.statsoft.com. […]

A further test deals with MV4-11 cells. The experiment in a line: Cell cycle analysis by flow cytometry (propidium iodide). The class given is cell-based, human. The conditions noted are these: MV4-11, 75 µM, 72 h. The procedure:
Cell cycle analysis was carried out according to the procedure previously described. The MV4-11 cells were seeded at the density of 1 × 10^5 cells/well of culture medium on 24-well plates (Sarstedt, Germany) to the final volume of 2 mL and were exposed to the test compounds at concentrations 75 μM for 72 h. After incubation, the cells were collected and 1 × 10^6 of cells were washed twice in cold PBS and fixed for 24 h in 70% ethanol at − 20 °C. Then the cells were washed twice in PBS and incubated with RNAse (8 μg/mL, Fermentas, Germany) at 37 °C for 1 h. The cells were stained for 30 min. with propidium iodide (50 μg/mL, Sigma Aldrich, Germany) at 4 °C and the cellular DNA content was analyzed by flow cytometry using BD LSRFortessa cytometer (BD Bioscience, San Jose, USA). Compounds at each concentration were tested at least three times independently. Obtained results were analyzed using Flowing software 2 (Cell Imaging Core, Turku Centre for Biotechnology, University of Turku Åbo Akademi University).
In general terms: Flow cytometry measures light scatter and fluorescence of single cells or particles in a stream.

For the next test, the system named is LoVo/DX cells. The experiment in a line: Antiproliferative activity, SRB assay, doxorubicin resistant subline. The class given is cell-based, human. The note with it: for IC50: 72 h exposure, SRB, mean ± SD, n.a = no activity in concentration of 5, 25, 125, 625 μM; for Selectivity index SI, LoVo/DX: SI = IC50 BALB/3T3 / IC50 LoVo/DX. The procedure:
Cell lines were cultured according to the protocol described before. […] All culture media were supplemented with 2 mM L-glutamine (Sigma-Aldrich, Germany), 100 units/mL penicillin, and 100 µg/mL streptomycin (both from Polfa Tarchomin S.A., Poland). All cell lines were grown at 37 °C with 5% CO2 humidified atmosphere. The solutions of the compounds (50 mM) were prepared by dissolving the substances in DMSO (Sigma Aldrich, Germany). […] The in vitro cytotoxic effect of all agents was examined using the MTT (MV4-11) or SRB assay, described previously. […] Each compound in each concentration was tested in triplicate in a single experiment, which was repeated 3–5 times.
A general note: The SRB assay estimates cell density from bound dye.

Five molecules from article PMC7896091, “Synthesis of novel phytol-derived γ-butyrolactones and evaluation of their biological activity” (Scientific Reports, 2021) can be followed below.

Consider `C=CC(C)(CCCC(C)CCCC(C)CCCC(C)C)CC(=O)O` (stereo not shown) [compound 3, 3,7,11,15-tetramethyl-3-vinylhexadecanoic acid], for which, in the test on Myzus persicae, the “Mean duration of probing (C + G + E)” value is 1.6 ± 0.7 h, the Number of probes came to 25.3 ± 6.7, the “Total duration of pathway (C)” value amounted to 2.9 ± 0.5 h and the “Total duration of phloem phase (E)” value was 4.1 ± 0.8 h. In the test with Myzus persicae, the “Total duration of probing (C + G + E)” value is on record as 7.2 ± 0.2 h, the “Number of probes before first phloem phase” value worked out at 15.7 ± 5.9, the “Time from first probe to first phloem phase” value (from here on “Time from first probe”) is reported as 2.0 ± 0.5 h and the “Duration of first phloem phase” value came to 3.3 ± 0.9 h. Also, in the test with Myzus persicae, the “Total duration of phloem salivation E1” value is reported as 9.0 ± 6.0 min, the “Total duration of phloem sap ingestion E2” value is 3.9 ± 0.8 h, the “Number of probes < 3 min” value turned out to be 10.9 ± 4.4 and the “Proportion of salivation in phloem phase” value is 8.4%. In addition, the “Proportion of phloem phase in total probing” value (“Proportion of phloem phase” below) with Myzus persicae came to 52.6%. Besides, the “Induced death of cells” value in the test with MV4-11 cells is recorded as 50%. Also, in the test with LoVo/DX cells (Homo sapiens, LoVo/DX), the IC50 was determined as 55 ± 1.5 µM. Further, the “Selectivity index SI, LoVo/DX” value in the test on LoVo/DX cells was 2.64.

Turning to `CC(C)CCCC(C)CCCC(C)CCC[C@]1(C)CC(=O)O[C@H]1CCl` (stereo in doubt) [compound 7, cis-5-chloromethyl-4-methyl-4-(4′,8′,12′-trimethyltridecyl)dihydrofuran-2-one], in the test with Myzus persicae, the “Mean duration of probing (C + G + E)” value is listed as 1.0 ± 0.4 h, the Number of probes was found to be 18.7 ± 4.6, the “Total duration of pathway (C)” value is listed as 2.5 ± 0.5 h and the “Total duration of phloem phase (E)” value is recorded as 4.4 ± 0.8 h. For the same molecule, in the test on Myzus persicae, the “Total duration of probing (C + G + E)” value stood at 7.1 ± 0.5 h, the “Number of probes before first phloem phase” value is given as 15.6 ± 4.7, the “Time from first probe” value is 3.3 ± 0.8 h and the “Duration of first phloem phase” value is 3.6 ± 0.8 h. In the test on Myzus persicae, the “Total duration of phloem salivation E1” value was determined as 1.2 ± 0.6 min, the “Total duration of phloem sap ingestion E2” value is on record as 4.4 ± 0.8 h, the “Number of probes < 3 min” value is given as 9.6 ± 3.6 and the “Proportion of salivation in phloem phase” value came out at 0.4%. In addition, the “Proportion of phloem phase” value in the test with Myzus persicae amounted to 56.9%. In the test with MV4-11 cells, the “Induced death of cells” value is on record as 20–30%. In the test on LoVo/DX cells (Homo sapiens, LoVo/DX), this molecule showed an IC50 of 237 ± 52.9 µM.

Turning to `CC(C)CCCC(C)CCCC(C)CCC[C@]1(C)CC(=O)O[C@@H]1CBr` (stereo in doubt) [compound 4, trans-5-Bromomethyl-4-methyl-4-(4′,8′,12′-trimethyltridecyl)dihydrofuran-2-one], in the test on Myzus persicae, the “Mean duration of probing (C + G + E)” value is listed as 0.9 ± 0.3 h, the Number of probes is given as 20.8 ± 5.2, the “Total duration of pathway (C)” value is listed as 2.4 ± 0.6 h and the “Total duration of phloem phase (E)” value is listed as 4.8 ± 0.8 h. In the test with Myzus persicae, the “Total duration of probing (C + G + E)” value was 7.4 ± 0.3 h, the “Number of probes before first phloem phase” value is on record as 17.2 ± 4.8, the “Time from first probe” value turned out to be 2.7 ± 0.8 h and the “Duration of first phloem phase” value is given as 3.0 ± 0.9 h. Also, in the test with Myzus persicae, the “Total duration of phloem salivation E1” value is 1.8 ± 0.6 min, the “Total duration of phloem sap ingestion E2” value was 4.8 ± 0.8 h, the “Number of probes < 3 min” value was 8.5 ± 3.6 and the “Proportion of salivation in phloem phase” value was found to be 1.5%. Further, the “Proportion of phloem phase” value in the test on Myzus persicae was 62.9%. In addition, the “Induced death of cells” value in the test on MV4-11 cells was 20–30%. The same molecule gave an IC50 in the test with LoVo/DX cells (Homo sapiens, LoVo/DX) of 306 ± 136 µM. Further, the “Selectivity index SI, LoVo/DX” value in the test on LoVo/DX cells turned out to be 1.14.

Consider “3,7,11,15-tetramethylhexadec-2-en-1-ol [Phytol (1), reference compound]”, for which, in the test with Myzus persicae, the “Mean duration of probing (C + G + E)” value stood at 0.3 ± 0.1 h, the Number of probes was 41.4 ± 7.6, the “Total duration of pathway (C)” value is given as 4.2 ± 0.4 h and the “Total duration of phloem phase (E)” value is 2.8 ± 0.5 h. Also, in the test with Myzus persicae, the “Total duration of probing (C + G + E)” value is 7.1 ± 0.2 h, the “Duration of first phloem phase” value is listed as 1.6 ± 0.5 h, the “Total duration of phloem salivation E1” value was 8.4 ± 2.4 min and the “Total duration of phloem sap ingestion E2” value stood at 2.7 ± 0.5 h. Besides, in the test on Myzus persicae, the “Number of probes < 3 min” value came out at 18.8 ± 3.6, the “Proportion of salivation in phloem phase” value is on record as 18.3% and the “Proportion of phloem phase” value was determined as 38.4%. Besides, the “Number of probes before first phloem phase” value with Myzus persicae (listed as phytol) was 27.0 (± 5.3). Moreover, in the test with Myzus persicae (listed as phytol (1)), the “Number of probes before first phloem phase” value is 27.0 ± 5.3 and the “Time from first probe” value came to 2.7 ± 0.6 h. Besides, in the test with LoVo/DX cells, it took 70.8 ± 3.9 µM to reach half-maximal inhibition (IC50) and the “Selectivity index SI, LoVo/DX” value amounted to 0.91.

As for `CC(C)CCCC(C)CCCC(C)CCC[C@]1(C)CC(=O)O[C@H]1CBr` (stereo in doubt) [compound 5, cis-5-Bromomethyl-4-methyl-4-(4′,8′,12′-trimethyltridecyl)dihydrofuran-2-one], in the test on Myzus persicae, the “Mean duration of probing (C + G + E)” value amounted to 0.5 ± 0.1 h, the Number of probes is 31.6 ± 9.1, the “Total duration of pathway (C)” value was 2.8 ± 0.5 h and the “Total duration of phloem phase (E)” value turned out to be 4.0 ± 0.7 h. In the test on Myzus persicae, the “Total duration of probing (C + G + E)” value was 7.1 ± 0.4 h, the “Number of probes before first phloem phase” value was 10.3 ± 3.1, the “Time from first probe” value was found to be 1.4 ± 0.3 h and the “Duration of first phloem phase” value was found to be 2.2 ± 0.8 h. Further, in the test on Myzus persicae, the “Total duration of phloem salivation E1” value stood at 2.4 ± 0.6 min, the “Total duration of phloem sap ingestion E2” value amounted to 4.0 ± 0.7 h, the “Number of probes < 3 min” value was 7.1 ± 2.8 and the “Proportion of salivation in phloem phase” value came out at 3.8%. In addition, in the test on Myzus persicae, the “Proportion of phloem phase” value was 54.0%. Besides, the “Induced death of cells” value in the test on MV4-11 cells was 20–30%. Further, the midpoint of inhibition in the test on LoVo/DX cells (Homo sapiens, LoVo/DX), the IC50, lay at 261 ± 104 µM. Also, the “Selectivity index SI, LoVo/DX” value with LoVo/DX cells is reported as 1.62.

As a reminder, the IC50 is the concentration needed to halve the response being measured. A lower IC50 goes with greater potency.
